US20170239330A1, “FORMULATIONS FOR HISTATIN THERAPEUTICS” (RAPID PATHOGEN SCREENING, INC., priority 2014, published 2017)

What was measured:
[1] = system: cultured ocular epithelial cells; conditions: in vitro; cited from earlier work
[2] = Stability of ocular histatin formulation determined by mass spectroscopy; type: physicochemical; conditions: 100 μg/mL in gel tears lubricating eye drop with 0.25% PEG in aqueous buffered borate salt solution
Procedure: In some embodiments, the ocular histatin formulation is stable both at room temperature (25° C.) and at 45° C. for at least 90 days.

Row | Time formulation found stable, by mass spectroscopy ([2]; 25° C.) | Time formulation found stable, by mass spectroscopy ([2]; 45° C.) | Substance | Cytotoxicity to cultured ocular epithelial cells [1]
1 |  |  | Benzalkonium chloride | significant cytotoxicity
2 | at least 505 days | at least 90 days | cyclo(DNLPETGGDSHEKRHHGYRRKFHEKHHSHREFPFYGDYGSNYLY) [cyclized histatin 1] | 
